# From patent US6737383B1, “Herbicidal oxadiazolidines” (priority 1999, dated 2004)
# Columns and labels:
# velvetleaf = assay: Test B pre/postemergence velvetleaf; format: in vivo, Abutilon theophrasti
# In short: (§1)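 Test chemicals in a non-phytotoxic solvent mixture with surfactant were sprayed preemergence onto planted seeds and postemergence onto plants 2 to 18 cm tall (1- to 4-leaf stage). After twelve to sixteen days in a greenhouse, injury was visually rated against untreated controls from 0 (no effect) to 10 (complete control).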
# wheat = assay: Test B pre/postemergence wheat; format: in vivo, Triticum aestivum
# In short: as §1
# corn = assay: Test B pre/postemergence corn; format: in vivo, Zea mays
# In short: as §1
# rape = assay: Test B pre/postemergence rape; format: in vivo, Brassica napus
# In short: as §1
# purple nutsedge = assay: Test B pre/postemergence purple nutsedge; format: in vivo, Cyperus rotundus
# In short: as §1
# giant foxtail = assay: Test B pre/postemergence giant foxtail; format: in vivo, Setaria faberii
# In short: as §1
# soybean = assay: Test B pre/postemergence soybean; format: in vivo, Glycine max
# In short: as §1
# cocklebur = assay: Test B pre/postemergence cocklebur; format: in vivo, Xanthium strumarium
# In short: as §1
# morningglory = assay: Test B pre/postemergence morningglory; format: in vivo, Ipomoea hederacea
# In short: as §1
# crabgrass = assay: Test B pre/postemergence crabgrass; format: in vivo, Digitaria sanguinalis
# In short: as §1
# pigweed = assay: Test B pre/postemergence pigweed; format: in vivo, Amaranthus retroflexus
# In short: as §1
# sugar beet = assay: Test B pre/postemergence sugar beet; format: in vivo, Beta vulgaris
# In short: as §1
# wild oat = assay: Test B pre/postemergence wild oat; format: in vivo, Avena fatua
# In short: as §1
# [1] = Preemergence, Rate 62 g/ha, scale of 0 to 10 where 0 is no effect and 10 is complete control
# [2] = Preemergence, Rate 125 g/ha, 0 is no effect, 10 is complete control
# [3] = Preemergence, Rate 250 g/ha, scale 0 to 10, 0 is no effect, 10 is complete control
# [4] = Preemergence, Rate 500 g/ha, scale 0 to 10 (0 no effect, 10 complete control)
# [5] = Rate 250 g/ha, Postemergence, scale 0 to 10, 0 is no effect, 10 is complete control
# [6] = Rate 500 g/ha, Postemergence, scale 0 to 10
# [7] = Postemergence, Rate 125 g/ha, scale of 0 to 10 where 0 is no effect and 10 is complete control
# [8] = Rate 62 g/ha, Postemergence, scale of 0 to 10 where 0 is no effect and 10 is complete control
structure (smiles),measurement,setting,value
CC(C)N(C(=O)n1oc(=O)n([C@@H](C)c2ccccc2)c1=O)c1ccccc1 [Compound 173],Velvetleaf plant response rating,velvetleaf; [1],0
same,Velvetleaf plant response rating (0 to 10 scale),velvetleaf; [2],0
same,Velvetleaf plant response rating,velvetleaf; [3],0
same,Velvetleaf plant response rating,velvetleaf; [4],0
same,"Plant response rating, Velvetleaf",velvetleaf; [5],0
same,Velvetleaf plant response rating,velvetleaf; [6],0
same,Wheat plant response rating,wheat; [1],0
same,Wheat plant response rating (0 to 10 scale),wheat; [2],0
same,Wheat plant response rating,wheat; [3],0
same,Wheat plant response rating,wheat; [4],0
same,"Plant response rating, Wheat",wheat; [5],0
same,Wheat plant response rating,wheat; [6],0
same,Corn plant response rating,corn; [7],0
same,Corn plant response rating,corn; [1],0
same,Corn plant response rating (0 to 10 scale),corn; [2],0
same,Corn plant response rating,corn; [3],0
same,Corn plant response rating,corn; [4],0
same,Corn plant response rating,corn; [8],0
same,"Plant response rating, Corn",corn; [5],0
same,Corn plant response rating,corn; [6],0
same,Rape plant response rating,rape; [7],0
same,Rape plant response rating,rape; [1],0
same,Rape plant response rating (0 to 10 scale),rape; [2],0
same,Rape plant response rating,rape; [3],0
same,Rape plant response rating,rape; [4],0
same,Rape plant response rating,rape; [8],0
same,"Plant response rating, Rape",rape; [5],0
same,Rape plant response rating,rape; [6],0
same,Nutsedge plant response rating,purple nutsedge; [7],0
same,Nutsedge plant response rating,purple nutsedge; [1],0
same,Nutsedge plant response rating (0 to 10 scale),purple nutsedge; [2],0
same,Nutsedge plant response rating,purple nutsedge; [3],0
same,Nutsedge plant response rating,purple nutsedge; [4],0
same,Nutsedge plant response rating,purple nutsedge; [8],0
same,"Plant response rating, Nutsedge",purple nutsedge; [5],0
same,Nutsedge plant response rating,purple nutsedge; [6],0
same,Giant foxtail plant response rating,giant foxtail; [7],0
same,Giant foxtail plant response rating,giant foxtail; [1],6
same,Giant foxtail plant response rating (0 to 10 scale),giant foxtail; [2],9
same,Giant foxtail plant response rating,giant foxtail; [3],9
same,Giant foxtail plant response rating,giant foxtail; [4],10
same,Giant foxtail plant response rating,giant foxtail; [8],0
same,"Plant response rating, Giant foxtail",giant foxtail; [5],0
same,Giant foxtail plant response rating,giant foxtail; [6],0
same,Soybean plant response rating,soybean; [7],2
same,Soybean plant response rating,soybean; [1],0
same,Soybean plant response rating (0 to 10 scale),soybean; [2],0
same,Soybean plant response rating,soybean; [3],0
same,Soybean plant response rating,soybean; [4],3
same,Soybean plant response rating,soybean; [8],2
same,"Plant response rating, Soybean",soybean; [5],2
same,Soybean plant response rating,soybean; [6],4
same,Cocklebur plant response rating,cocklebur; [7],0
same,Cocklebur plant response rating,cocklebur; [1],0
same,Cocklebur plant response rating (0 to 10 scale),cocklebur; [2],0
same,Cocklebur plant response rating,cocklebur; [3],0
same,Cocklebur plant response rating,cocklebur; [4],0
same,Cocklebur plant response rating,cocklebur; [8],0
same,"Plant response rating, Cocklebur",cocklebur; [5],1
same,Cocklebur plant response rating,cocklebur; [6],2
same,Morningglory plant response rating,morningglory; [7],10
same,Morningglory plant response rating,morningglory; [1],0
same,Morningglory plant response rating (0 to 10 scale),morningglory; [2],0
same,Morningglory plant response rating,morningglory; [3],0
same,Morningglory plant response rating,morningglory; [4],0
same,Morningglory plant response rating,morningglory; [8],7
same,"Plant response rating, Morningglory",morningglory; [5],10
same,Morningglory plant response rating,morningglory; [6],10
same,Crabgrass plant response rating,crabgrass; [7],4
same,Crabgrass plant response rating,crabgrass; [1],2
same,Crabgrass plant response rating (0 to 10 scale),crabgrass; [2],6
same,Crabgrass plant response rating,crabgrass; [3],8
same,Crabgrass plant response rating,crabgrass; [4],9
same,Crabgrass plant response rating,crabgrass; [8],0
same,"Plant response rating, Crabgrass",crabgrass; [5],5
same,Crabgrass plant response rating,crabgrass; [6],8
same,Redroot pigweed plant response rating,pigweed; [7],0
same,Redroot pigweed plant response rating,pigweed; [1],0
same,Redroot pigweed plant response rating (0 to 10 scale),pigweed; [2],0
same,Redroot pigweed plant response rating,pigweed; [3],0
same,Redroot pigweed plant response rating,pigweed; [4],5
same,Redroot pigweed plant response rating,pigweed; [8],0
same,"Plant response rating, Redroot pigweed",pigweed; [5],0
same,Redroot pigweed plant response rating,pigweed; [6],0
same,Sugarbeets plant response rating,sugar beet; [7],0
same,Sugarbeets plant response rating,sugar beet; [1],0
same,Sugarbeets plant response rating (0 to 10 scale),sugar beet; [2],2
same,Sugarbeets plant response rating,sugar beet; [3],3
same,Sugarbeets plant response rating,sugar beet; [4],6
same,Sugarbeets plant response rating,sugar beet; [8],0
same,"Plant response rating, Sugarbeets",sugar beet; [5],0
same,Sugarbeets plant response rating,sugar beet; [6],5
same,Wild oats plant response rating,wild oat; [1],0
same,Wild oats plant response rating (0 to 10 scale),wild oat; [2],0
same,Wild oats plant response rating,wild oat; [3],2
same,Wild oats plant response rating,wild oat; [4],3
same,"Plant response rating, Wild oats",wild oat; [5],0
same,Wild oats plant response rating,wild oat; [6],0
